What all share (test): PapG Luminex ligand binding at equilibrium
In experiment [1] the target is T1, E. coli CFT073 PapG-II lectin domain PapGLD variant N96S S89T, SEQ ID NO: 15 (Escherichia coli, UniProt A0A0H2VAQ6, N116S/S109T).
T1 sequence (A0A0H2VAQ6 with tags, fused parts or gaps S109T/N116S): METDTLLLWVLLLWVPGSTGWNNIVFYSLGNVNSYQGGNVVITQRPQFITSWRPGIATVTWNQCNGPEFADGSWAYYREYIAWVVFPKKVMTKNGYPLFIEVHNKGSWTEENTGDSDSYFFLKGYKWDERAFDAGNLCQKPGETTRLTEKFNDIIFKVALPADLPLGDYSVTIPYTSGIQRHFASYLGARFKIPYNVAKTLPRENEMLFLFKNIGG
The settings on record: HEPES pH 7.4, 4° C. overnight. On the procedure:
(§1) To determine the ability of PapGLD mutants to bind the porcine derived globotetraosyl ceramide ligand GalNAc-Gal-Gal-Glc-ceramide (GbO4), a Luminex ligand binding assay was developed. Surfactant Protein-A (SP-A) was coupled to the surface of MagPlex beads by EDC/NHS, to capture the lipid tail of the globotetraosyl ceramide. The Globotetraosyl ceramide/SP-A beads were incubated with an eight-point threefold titration of PapG in a 96 well flat bottom white plate with final volume of 100 microliters of 50 mM HEPES PH 7.4, 10 mM NaCl, 0.0005% Tween 20 shaking at 300 rpm, 4° C. overnight. After 20-24 hours the ligand binding plates were read on a FlexMap 3D plate reader for measurement of well-bead region specific MFI. Ligand binding equilibrium dissociation constants (Kd) were calculated assuming one site specific binding and interpolated using non-linear curve fitting (GraphPad Prism) as the ligand concentration needed to achieve half-maximal binding. The Luminex derived apparent Kd values are based on approximately fifty bead counts per assay sample.
(§2) To determine Luminex ligand binding affinities of PapG mutants for the synthetic globoside ligand Gal-Glc-phenoxy-octyl-amine (GbO2Mpo), a Luminex ligand binding assay was developed based on the direct coupling of the amine reactive globoside ligand to the EDC/NHS activated carboxylic surface of MagPlex beads. Synthesis of GbO2Mpo ligand with an octyl amine linker (for coupling to beads) was performed via methods described previously. The GbO2Mpo beads were incubated with an 8-point, threefold titration of PapG in a 96-well flat bottom white plate with final volume of 100 μl of 50 mM HEPES pH 7.4, 10 mM NaCl, 0.0005% Tween 20 shaking at 300 rpm, 4° C. overnight. After 20-24 hours the ligand binding plates were read on a FlexMap 3D plate reader for measurement of well-bead region specific MFI.
(§3) Binding of PapG proteins to GbO2 or GbO4 ligands was evaluated using a Luminex platform wherein ligands were coupled to MagPlex beads via surfactant protein A (for […]) or directly using […] conjugation (for […]). This assay was used to rank order binding affinities of the mutants, reported as Kd values interpolated from protein antigen titration curves (Table 7).

Experiment [2] deals with T2, E. coli CFT073 PapG-II lectin domain PapGLD variant N96S G147A, SEQ ID NO: 21 (Escherichia coli, UniProt A0A0H2VAQ6, G167A/N116S).
T2 sequence (A0A0H2VAQ6 with tags, fused parts or gaps N116S/G167A): T1 sequence (A0A0H2VAQ6 with tags, fused parts or gaps S109T/N116S) with T109S, G167A
To be noted: HEPES pH 7.4, 4° C. overnight. On the procedure:
as §1, §2, §3

Experiment [3] has as its target T3, E. coli CFT073 full-length donor strand complemented PapG-II, PapGDSF N96S N286S (Escherichia coli, UniProt A0A0H2VAQ6, N116S/N306S).
T3 construct: mouse IgGK signal peptide, C-terminal 8xHis, ExpiCHO, purified
T3 sequence (A0A0H2VAQ6 with tags, fused parts or gaps N116S/N306S): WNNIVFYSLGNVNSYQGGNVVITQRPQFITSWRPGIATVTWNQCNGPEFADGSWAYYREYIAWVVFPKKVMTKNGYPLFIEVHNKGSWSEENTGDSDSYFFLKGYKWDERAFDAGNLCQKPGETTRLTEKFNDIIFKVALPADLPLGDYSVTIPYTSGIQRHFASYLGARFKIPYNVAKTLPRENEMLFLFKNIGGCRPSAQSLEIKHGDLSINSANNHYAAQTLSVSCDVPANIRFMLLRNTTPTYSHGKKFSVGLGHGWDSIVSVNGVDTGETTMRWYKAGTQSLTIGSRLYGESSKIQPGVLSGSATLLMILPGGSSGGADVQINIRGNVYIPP
The settings on record: HEPES pH 7.4, 4° C. overnight. The procedure:
as §1, §2, §3

Experiment [4] concerns the target T4, E. coli CFT073 PapG-II lectin domain PapGLD variant N96S G75A, SEQ ID NO: 19 (Escherichia coli, UniProt A0A0H2VAQ6, G95A/N116S).
T4 sequence (A0A0H2VAQ6 with tags, fused parts or gaps G95A/N116S): T1 sequence (A0A0H2VAQ6 with tags, fused parts or gaps S109T/N116S) with G95A, T109S
The settings on record: HEPES pH 7.4, 4° C. overnight. On the procedure:
as §1, §2, §3

Experiment [5] concerns the target T5, E. coli CFT073 PapG-II lectin domain PapGLD variant N96S G122A, SEQ ID NO: 20 (Escherichia coli, UniProt A0A0H2VAQ6, G142A/N116S).
T5 sequence (A0A0H2VAQ6 with tags, fused parts or gaps N116S/G142A): T1 sequence (A0A0H2VAQ6 with tags, fused parts or gaps S109T/N116S) with T109S, G142A
To be noted: for Kd: HEPES pH 7.4, 4° C. overnight. On the procedure:
as §1, §2, §3

The target in experiment [6] is T6, E. coli CFT073 PapG-II lectin domain PapGLD N96S WT v2 (Escherichia coli, UniProt A0A0H2VDP3, N116S).
T6 sequence (A0A0H2VDP3 21-216 N116S): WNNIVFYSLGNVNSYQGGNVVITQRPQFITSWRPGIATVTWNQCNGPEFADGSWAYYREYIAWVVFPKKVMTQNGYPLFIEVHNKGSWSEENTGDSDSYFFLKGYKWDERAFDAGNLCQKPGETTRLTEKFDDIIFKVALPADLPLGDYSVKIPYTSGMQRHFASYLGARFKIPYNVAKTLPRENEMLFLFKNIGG
The settings on record: HEPES pH 7.4, 4° C. overnight. On the procedure:
as §1, §2, §3

Setting [7] is: GbO2Mpo beads, read-out: Kd (GbO2).
The mark [8] stands for this setting: GbO4 beads, read-out: Kd (GbO4).

Where a chain is given by its changes, count along the chain named. Like-named read-outs stand apart in the source and are kept apart here.

With Gal-Glc-phenoxy-octyl-amine [GbO2], the Kd – broadly, the constant that tells how readily two partners part at equilibrium – in experiment [1] (setting [7]) is 1 nM; in experiment [2] (setting [7]) it was 4.6 nM; in experiment [3] (setting [7]) it was 1.6 nM; in experiment [4] (setting [7]), 2.2 nM; in experiment [5] (setting [7]), 1.4 nM; in experiment [6] (setting [7]) it was 1.1 nM.

As for GalNAc-Gal-Gal-Glc-ceramide [GbO4], the Kd in experiment [1] (setting [8]) was under 50 nM; in experiment [2] (setting [8]) it was over 300 nM; in experiment [3] (setting [8]) it was 8.8 nM; in experiment [4] (setting [8]), over 10 nM; in experiment [5] (setting [8]) it was over 300 nM; in experiment [6] (setting [8]), 29 nM. Further, the “binding to GbO4 (in words)” value in experiment [5] was “reduced binding”.
